The values below come from patent US9902728B2, “Pyrrolo and pyrazolopyrimidines as ubiquitin-specific protease 7 inhibitors” (Forma Therapeutics, Inc., priority 2014, dated 2018).

For one test, the target named is T1, USP7 (Homo sapiens, UniProt Q93009).
T1 construct: USP7, construct USP7 (208-1102) 6*His, Viva Biotech; 6xHis (C); purchased Viva Biotech
T1 sequence (Q93009 208-1102): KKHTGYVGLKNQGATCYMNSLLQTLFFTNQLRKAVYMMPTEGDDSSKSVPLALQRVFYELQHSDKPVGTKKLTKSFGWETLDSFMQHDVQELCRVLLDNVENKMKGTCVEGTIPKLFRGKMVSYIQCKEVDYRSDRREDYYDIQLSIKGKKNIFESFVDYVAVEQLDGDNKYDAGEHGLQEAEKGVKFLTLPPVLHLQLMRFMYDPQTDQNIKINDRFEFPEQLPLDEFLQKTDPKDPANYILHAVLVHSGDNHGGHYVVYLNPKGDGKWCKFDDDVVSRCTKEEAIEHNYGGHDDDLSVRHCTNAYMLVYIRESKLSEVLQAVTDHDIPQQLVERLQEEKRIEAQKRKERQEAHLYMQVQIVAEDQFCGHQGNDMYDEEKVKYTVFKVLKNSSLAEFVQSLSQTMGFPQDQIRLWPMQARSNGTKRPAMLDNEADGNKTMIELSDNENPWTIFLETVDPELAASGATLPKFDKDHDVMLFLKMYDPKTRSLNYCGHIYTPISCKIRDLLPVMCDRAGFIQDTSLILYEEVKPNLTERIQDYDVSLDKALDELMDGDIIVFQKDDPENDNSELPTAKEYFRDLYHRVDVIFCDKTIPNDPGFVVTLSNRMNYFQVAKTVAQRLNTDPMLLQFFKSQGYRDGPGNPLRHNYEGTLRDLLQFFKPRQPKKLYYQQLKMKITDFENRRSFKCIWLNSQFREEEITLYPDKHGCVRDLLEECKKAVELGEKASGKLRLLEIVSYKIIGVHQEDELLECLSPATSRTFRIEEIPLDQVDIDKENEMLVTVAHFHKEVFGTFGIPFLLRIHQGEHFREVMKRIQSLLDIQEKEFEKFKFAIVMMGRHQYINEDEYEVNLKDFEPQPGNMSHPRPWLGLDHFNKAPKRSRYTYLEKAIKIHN
The experiment in a line: USP7 Assay A (Ubitquin-Rhodamine 110 Assay). It counts as biochemical. To be noted: USP7_IC50, USP7 activity in USP7 assay A and B (table does not say which assay per compound). The method, boiled down:
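Enzyme and compound sat together for 30 min before Ub-Rh110 was added, in buffer of 20 mM Tris-HCl (pH 8.0), 1 mM GSH, 0.03% BGG and 0.01% Triton X-100.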
`CN1C2CCC1CN(c1cccc(-n3ncc4c(=O)n(CC5(O)CCN(C(=O)C6(C)CC6)CC5)cnc43)c1)C2` [Compound I-1644]: the IC50 is under 200 nM.
On the same count and under the same terms, as for `CC1(C(=O)N2CCC(O)(Cn3cnc4c(cnn4-c4cccc(N5CC6CC(C5)O6)c4)c3=O)CC2)CC1` [Compound I-1692], the figure is under 200 nM.

Still in this test, the particulars now being: USP7 activity in USP7 assay A and B (table does not say which assay per compound); read-out: USP7_IC50.
Regarding `O=C(c1ccc(F)cc1)N1CCC(O)(Cn2cnc3c(cnn3-c3ccc(-c4cnn(C5CCOCC5)c4)cc3)c2=O)CC1` [Compound I-1614], the IC50 is 200 to 1000 nM.
On the same count and under the same terms, as for `O=C(c1ccc(F)cc1)N1CCC(O)(Cn2cnc3c(cnn3-c3ccc(-c4cnn(C5COC5)c4)cc3)c2=O)CC1` [Compound I-1615], the figure is 200 to 1000 nM; as for `CC(C)(CO)n1cc(-c2ccc(-n3ncc4c(=O)n(CC5(O)CCN(C(=O)c6ccc(F)cc6)CC5)cnc43)cc2)cn1` [Compound I-1616], 200 to 1000 nM.
With `CC(C)(O)Cn1cc(-c2ccc(-n3ncc4c(=O)n(CC5(O)CCN(C(=O)c6ccc(F)cc6)CC5)cnc43)cc2)cn1` [Compound I-1617], the IC50 was in the range of 200 to 1000 nM.
For `CN1CCC2(CC1)CCN(c1ccc(-n3ncc4c(=O)n(CC5(O)CCN(C(=O)c6ccc(F)cc6)CC5)cnc43)cc1)CC2` [Compound I-1621], the IC50 is under 200 nM.
`CN1CCC2(CC1)CCN(c1ccc(-n3ncc4c(=O)n(CC5(O)CCN(C(=O)C6CC6)CC5)cnc43)cc1)CC2` [Compound I-1622]: the IC50 was under 200 nM.
For `Cc1cnn(-c2ccc(-n3ncc4c(=O)n(CC5(O)CCN(C(=O)c6ccc(F)cc6)CC5)cnc43)cc2)c1` [Compound I-1623], the IC50 is 1000 to 10000 nM.
Still for that read-out and setting: as for `CC(=O)N1CCC(O)(Cn2cnc3c(cnn3-c3ccc(Cl)cc3)c2=O)CC1` [Compound I-1625], the figure is over 10000 nM.
In the case of `CC1(C(=O)N2CCC(O)(Cn3cnc4c(cnn4-c4ccc(Cl)cc4)c3=O)CC2)CC1` [Compound I-1632], the IC50 was 1000 to 10000 nM.
In the case of `CC1(C(=O)N2CCC(O)(Cn3cnc4c(cnn4-c4ccc(N5CC(N6CCOCC6)C5)cc4)c3=O)CC2)CC1` [Compound I-1636], the IC50 was in the range of 200 to 1000 nM.
For `CC1(C(=O)N2CCC(O)(Cn3cnc4c(cnn4-c4cccc(N5CC(N6CCOCC6)C5)c4)c3=O)CC2)CC1` [Compound I-1637], the IC50 lay in the range of 200 to 1000 nM.
Still for that read-out and setting: the same measure for `C[C@@H]1CN(c2ccc(-n3ncc4c(=O)n(CC5(O)CCN(C(=O)C6(C)CC6)CC5)cnc43)cc2)C[C@H](C)N1C` [Compound I-1638]: under 200 nM; for `C[C@H]1CN(c2ccc(-n3ncc4c(=O)n(CC5(O)CCN(C(=O)C6(C)CC6)CC5)cnc43)cc2)CCN1C` [Compound I-1639]: under 200 nM; for `C[C@@H]1CN(c2ccc(-n3ncc4c(=O)n(CC5(O)CCN(C(=O)C6(C)CC6)CC5)cnc43)cc2)CCN1C` [Compound I-1640]: under 200 nM.
Regarding `CN1CCN(c2ccc(-n3ncc4c(=O)n(CC5(O)CCN(C(=O)C6(C)CC6)CC5)cnc43)cc2)CC1` [Compound I-1641], the IC50 is under 200 nM.
On the same count and under the same terms, the same measure for `CC1(C(=O)N2CCC(O)(Cn3cnc4c(cnn4-c4ccc(N5CCC(C6COC6)CC5)cc4)c3=O)CC2)CC1` [Compound I-1642]: 200 to 1000 nM; for `CC1(C(=O)N2CCC(O)(Cn3cnc4c(cnn4-c4ccc(N5CC6CC(C5)O6)cc4)c3=O)CC2)CC1` [Compound I-1643]: 200 to 1000 nM; for `CC1CN(c2cccc(-n3ncc4c(=O)n(CC5(O)CCN(C(=O)C6(C)CC6)CC5)cnc43)c2)CC(C)N1C` (stereo not shown) [Compound I-1645]: under 200 nM.
Regarding `C[C@H]1CN(c2cccc(-n3ncc4c(=O)n(CC5(O)CCN(C(=O)C6(C)CC6)CC5)cnc43)c2)CCN1C` [Compound I-1646], the IC50 was under 200 nM.
On the same count and under the same terms, as for `O=C(c1ccc(F)cc1)N1CCC(O)(Cn2cnc3c(cnn3-c3ccc(N4CCCn5nccc54)cc3)c2=O)CC1` [Compound I-1654], the figure is 200 to 1000 nM.
For the molecule `O=C(C1CC1)N1CCC(O)(Cn2cnc3c(cnn3-c3ccc(N4CCC(O)C4)cc3)c2=O)CC1` (stereo not shown) [Compound I-1655], the IC50 was 1000 to 10000 nM.
For `CC1(O)CCN(c2ccc(-n3ncc4c(=O)n(CC5(O)CCN(C(=O)C6CC6)CC5)cnc43)cc2)C1` (stereo not shown) [Compound I-1657], the IC50 is 1000 to 10000 nM.
Take `Cn1cc(-c2ccc(-n3ncc4c(=O)n(CC5(O)CCN(C(=O)c6ccc(F)cc6)CC5)cnc43)cc2)cn1` [Compound I-1672]: the IC50 fell in the range of 1000 to 10000 nM.
Consider `O=C(C1CC1)N1CCC(O)(Cn2cnc3c(cnn3-c3ccc(-c4cnn5c4COCC5)cc3)c2=O)CC1` [Compound I-1673], for which the IC50 lay in the range of 1000 to 10000 nM.
For `CC1(C(=O)N2CCC(O)(Cn3cnc4c(cnn4-c4ccc(N5CC(C(C)(C)O)C5)cc4)c3=O)CC2)CC1` [Compound I-1674], the IC50 was 200 to 1000 nM.
For the molecule `CC1(C(=O)N2CCC(O)(Cn3cnc4c(cnn4-c4cccc(N5CCC(F)(F)CC5)c4)c3=O)CC2)CC1` [Compound I-1675], the IC50 is under 200 nM.
With `CC1(C(=O)N2CCC(O)(Cn3cnc4c(cnn4-c4cccc(N5CC(C(C)(C)O)C5)c4)c3=O)CC2)CC1` [Compound I-1676], the IC50 was under 200 nM.
Same read-out and setting: as for `CC1(C(=O)N2CCC(O)(Cn3cnc4c(cnn4-c4ccc(N5CC(O)C5)cc4)c3=O)CC2)CC1` [Compound I-1677], the figure is 200 to 1000 nM; as for `CC1(C(=O)N2CCC(O)(Cn3cnc4c(cnn4-c4cccc(N5CC(O)C5)c4)c3=O)CC2)CC1` [Compound I-1678], 200 to 1000 nM.
With `CC1(C(=O)N2CCC(O)(Cn3cnc4c(cnn4-c4ccc(N5CC(F)C5)cc4)c3=O)CC2)CC1` [Compound I-1679], the IC50 lay in the range of 200 to 1000 nM.
The same measure, in the same setting: the same measure for `CC1(C(=O)N2CCC(O)(Cn3cnc4c(cnn4-c4cccc(N5CC(F)C5)c4)c3=O)CC2)CC1` [Compound I-1680]: 200 to 1000 nM; for `CN1CC2CCC(C1)N2c1ccc(C(=O)N2CCC(O)(Cn3cnc4c(cnn4-c4ccc(F)cc4)c3=O)CC2)cc1` [Compound I-1681]: 1000 to 10000 nM.
Take `O=C(c1ccc(N2CCN3CCC2CC3)cc1)N1CCC(O)(Cn2cnc3c(cnn3-c3ccc(F)cc3)c2=O)CC1` [Compound I-1682]: the IC50 lay in the range of 1000 to 10000 nM.
`O=C(c1ccc(N2CCCN3CCCC3C2)cc1)N1CCC(O)(Cn2cnc3c(cnn3-c3ccc(F)cc3)c2=O)CC1` (stereo not shown) [Compound I-1683]: the IC50 lay within 1000 to 10000 nM.
`O=C(c1cnc(C2CC2)o1)N1CCC(O)(Cn2cnc3c(cnn3-c3ccc(-n4cc(CO)cn4)cc3)c2=O)CC1` [Compound I-1684]: the IC50 was under 200 nM.
Take `O=C(c1cnc(C2CC2)o1)N1CCC(O)(Cn2cnc3c(cnn3-c3ccc(-n4cc(C(F)(F)F)cn4)cc3)c2=O)CC1` [Compound I-1685]: the IC50 is under 200 nM.
`O=C(c1cnc(C2CC2)o1)N1CCC(O)(Cn2cnc3c(cnn3-c3ccc(-n4cc(Cl)cn4)cc3)c2=O)CC1` [Compound I-1686]: the IC50 is under 200 nM.
For the molecule `Cc1ncc(C(=O)N2CCC(O)(Cn3cnc4c(cnn4-c4ccc(-n5cc(CO)cn5)cc4)c3=O)CC2)o1` [Compound I-1687], the IC50 was under 200 nM.
`Cc1ncc(C(=O)N2CCC(O)(Cn3cnc4c(cnn4-c4ccc(-n5cc(C(F)(F)F)cn5)cc4)c3=O)CC2)o1` [Compound I-1688]: the IC50 is under 200 nM.
With `C[C@@H]1CN(c2cccc(-n3ncc4c(=O)n(CC5(O)CCN(C(=O)C6(C)CC6)CC5)cnc43)c2)CCN1C` [Compound I-1689], the IC50 is under 200 nM.
In the case of `CN1CCN(c2cccc(-n3ncc4c(=O)n(CC5(O)CCN(C(=O)C6(C)CC6)CC5)cnc43)c2)CC1` [Compound I-1690], the IC50 is under 200 nM.
`CC1(C(=O)N2CCC(O)(Cn3cnc4c(cnn4-c4cccc(N5CCC(C6COC6)CC5)c4)c3=O)CC2)CC1` [Compound I-1691]: the IC50 lay within 200 to 1000 nM.
On to `CN1CCN(c2ccc(-n3ncc4c(=O)n(CC5(O)CCN(C(=O)C6(C)CC6)CC5)cnc43)cc2)CC1C(F)F` (stereo not shown) [Compound I-1693], for which the IC50 was in the range of 200 to 1000 nM.
Turning to `CN1CCN(c2cccc(-n3ncc4c(=O)n(CC5(O)CCN(C(=O)C6(C)CC6)CC5)cnc43)c2)CC1C(F)F` (stereo not shown) [Compound I-1694], the IC50 is under 200 nM.
Take `CC1(C(=O)N2CCC(O)(Cn3cnc4c(cnn4-c4cccc(N5CCN(C6COC6)CC5)c4)c3=O)CC2)CC1` [Compound I-1700]: the IC50 was in the range of 200 to 1000 nM.
In the case of `CC1(C(=O)N2CCC(O)(Cn3cnc4c(cnn4-c4ccc(N5CCN(C6COC6)CC5)cc4)c3=O)CC2)CC1` [Compound I-1701], the IC50 lay in the range of 200 to 1000 nM.
On to `CC(=O)N1C[C@@H]2C[C@H]1CN2c1cccc(-n2ncc3c(=O)n(CC4(O)CCN(C(=O)C5(C)CC5)CC4)cnc32)c1` [Compound I-1702], for which the IC50 was 200 to 1000 nM.
On to `Cc1ccn(-c2ccc(-n3ncc4c(=O)n(CC5(O)CCN(C(=O)C6(C)CC6)CC5)cnc43)cc2)n1` [Compound I-1710], for which the IC50 was in the range of 200 to 1000 nM.
Turning to `Cc1ccn(-c2ccc(-n3ncc4c(=O)n(CC5(O)CCN(C(=O)C6(C)COC6)CC5)cnc43)cc2)n1` [Compound I-1711], the IC50 is 1000 to 10000 nM.
As for `CC1(C(=O)N2CCC(O)(Cn3cnc4c(cnn4-c4ccc(N5CCC6(CC5)COC6)cc4)c3=O)CC2)CC1` [Compound I-1716], the IC50 is under 200 nM.
On to `CC1(C(=O)N2CCC(O)(Cn3cnc4c(cnn4-c4ccc(-n5cc(C(F)(F)F)cn5)cc4)c3=O)CC2)CCC1` [Compound I-1717], for which the IC50 was under 200 nM.

The same test, now with this note: USP7 assay A and B (table does not say which assay per compound); read-out: USP7_IC50.
In the case of `O=C(C1CC1)N1CCC(O)(Cn2cnc3c(cnn3-c3ccc(N4CCN5CCCCC5C4)cc3)c2=O)CC1` (stereo not shown) [Compound I-1584], the IC50 fell in the range of 200 to 1000 nM.
Take `O=C(c1cnc(C2CC2)o1)N1CCC(O)(Cn2cnc3c(cnn3-c3ccc(-c4ccccc4)cc3)c2=O)CC1` [Compound I-1659]: the IC50 lay within 200 to 1000 nM.
For `CN(C)C(=O)N1CCC(O)(Cn2cnc3c(cnn3-c3cccc(-n4cc(Cl)cn4)c3)c2=O)CC1` [Compound I-1666], the IC50 is over 10000 nM.
The same measure, in the same setting: the same measure for `O=C(C1CC1)N1CCC(O)(Cn2cnc3c(cnn3-c3ccc(OC4CCOCC4)cc3)c2=O)CC1` [Compound I-1667]: 1000 to 10000 nM; for `O=C(Nc1cccnc1)N1CCC(O)(Cn2cnc3c(cnn3-c3ccc(F)cc3)c2=O)CC1` [Compound I-1708]: 1000 to 10000 nM.
